Results from paper PMC4012454 (Marine Drugs, 2014).

Key:
sheep = details: in vivo; cited from earlier work
[1] = target: brevetoxin receptor (site five of voltage gated sodium channels); type: binding
brevenal receptor = type: binding

Compound | increase in RL (pulmonary resistance) (sheep) | bronchoconstriction (effect on RL) (sheep) | Ki [1] | Ki (brevenal receptor)
C=C(C=O)C[C@@H]1C[C@H](O)[C@]2(C)O[C@@H]3C[C@@H]4O[C@@H]5C[C@]6(C)O[C@]7(C)CC[C@@H]8O[C@@H]9C[C@]%10(C)O[C@@H]%11C(C)=CC(=O)O[C@H]%11C[C@H]%10O[C@H]9C[C@@H](C)[C@H]8O[C@H]7C[C@H]6O[C@H]5C/C=C\[C@H]4O[C@H]3C[C@H]2O1 [brevetoxin, PbTx-2] | 221% ± 21% | – | – | –
C=C/C=C\CC[C@H]1O[C@H]2CC[C@@]3(C)O[C@H]4[C@@H](O)C[C@@]5(C)O[C@@H](CC/C=C(C)/C(C)=C/C=O)[C@@H](C)C[C@H]5O[C@@H]4C[C@@H]3O[C@@H]2CC[C@@]1(C)O [Compound 3, brevenal] | – | no effects observed | 1130 ± 153 nM | 137 ± 16 nM
